Assay [1] has as its target human GLP-1 receptor (hGLP-1R) (Homo sapiens, UniProt P43220). Put plainly: cAMP production (HTRF) in CHO cells expressing hGLP-1R. The format is cell-based. The arrangement: expressed in transfected cells. As to conditions: for % Relative Potency Ratio: % GLP-1R activity relative to GLP-1 / % GlucR activity relative to glucagon; for EC50: hGLP-1R EC50 (pM). Put shortly:
(§1)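 Cells were resuspended in assay buffer at batch-optimized density, typically 1×10^5 cells/mL for hGLP-1R and 2×10^5 cells/mL for hGCGR. After 30 min incubation at room temperature with compound, cAMP was measured by two-step HTRF. EC50 values came from 4-parameter logistic fits of % Delta F.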

Assay [2] concerns the target human glucagon receptor (hGCGR) (Homo sapiens, UniProt P47871). Put plainly: cAMP production (HTRF) in CHO cells expressing hGCGR. As to conditions: hGluc-R EC50 (pM), cAMP, CHO cells, 0.1% BSA, geometric mean. The arrangement: expressed in transfected cells. The format is cell-based. Put shortly: as §1
A general note: cAMP levels reflect the balance of adenylyl cyclase and phosphodiesterase activity.

Structures are written as SMILES. Starred links: 1 amine or outer side, 2 acyl side, 3 side chain; linkers in the order of their positions; H or OH if unused. Non-standard residues stand in square brackets, D forms with d. Residues, ends and D or L forms follow the SMILES beside them. Groups on a side chain read outwards from the residue. *: point of attachment. C20 diacid = O=C(O)CCCCCCCCCCCCCCCCCCC(=O)*; C18 diacid = O=C(O)CCCCCCCCCCCCCCCCC(=O)*; γGlu = O=C(O)[C@H](CCC(=O)[*:2])N[*:1]; αMeF = C[C@](N)(Cc1ccccc1)C(=O)O; PEG2 = NCCOCCOCCC(=O)O; AEEA = NCCOCCOCC(=O)O; Aib = CC(C)(N)C(=O)O

The values that follow come from patent US20250353891A1 (MEDIMMUNE LIMITED, priority 2022, published 2025).

What is called EC50 is the midpoint of the concentration-response curve. Lower therefore signals an effect from little substance.

human GLP-1 receptor (hGLP-1R), sequence (P43220 24-463): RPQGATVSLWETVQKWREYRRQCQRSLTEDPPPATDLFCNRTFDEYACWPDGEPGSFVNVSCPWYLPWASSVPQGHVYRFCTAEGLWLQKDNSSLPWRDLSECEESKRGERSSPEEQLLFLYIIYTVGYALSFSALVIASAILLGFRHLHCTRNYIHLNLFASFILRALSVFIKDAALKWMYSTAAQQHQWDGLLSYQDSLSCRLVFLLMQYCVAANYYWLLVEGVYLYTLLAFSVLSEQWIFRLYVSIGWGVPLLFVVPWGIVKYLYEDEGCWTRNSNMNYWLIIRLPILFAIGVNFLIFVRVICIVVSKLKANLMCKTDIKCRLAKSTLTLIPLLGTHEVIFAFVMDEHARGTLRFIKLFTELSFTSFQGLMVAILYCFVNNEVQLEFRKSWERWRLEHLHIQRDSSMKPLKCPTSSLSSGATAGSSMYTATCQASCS
human glucagon receptor (hGCGR), sequence (P47871 26-477): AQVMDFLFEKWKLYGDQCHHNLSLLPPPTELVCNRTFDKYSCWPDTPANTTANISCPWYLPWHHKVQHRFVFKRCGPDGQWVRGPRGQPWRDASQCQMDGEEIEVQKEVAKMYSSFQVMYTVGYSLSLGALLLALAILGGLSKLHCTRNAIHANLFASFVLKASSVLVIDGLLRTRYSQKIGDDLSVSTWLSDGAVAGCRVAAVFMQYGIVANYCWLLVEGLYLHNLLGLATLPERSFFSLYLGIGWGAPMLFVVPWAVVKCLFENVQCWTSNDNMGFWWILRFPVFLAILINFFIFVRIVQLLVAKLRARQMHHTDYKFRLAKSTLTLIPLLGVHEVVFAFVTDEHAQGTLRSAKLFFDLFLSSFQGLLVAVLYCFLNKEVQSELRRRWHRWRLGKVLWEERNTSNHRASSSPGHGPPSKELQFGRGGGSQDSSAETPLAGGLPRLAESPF

With `CC[C@H](C)[C@H](NC(=O)[C@H](Cc1c[nH]c2ccccc12)NC(=O)[C@H](CCCCNC(=O)COCCOCCNC(=O)COCCOCCNC(=O)CC[C@H](NC(=O)CCCCCCCCCCCCCCCCC(=O)O)C(=O)O)NC(=O)[C@@H](NC(=O)[C@H](Cc1ccccc1)NC(=O)[C@H](CC(=O)O)NC(=O)[C@H](CCC(N)=O)NC(=O)[C@H](C)NC(=O)[C@H](C)NC(=O)[C@H](CCC(N)=O)NC(=O)[C@H](CO)NC(=O)[C@H](CC(=O)O)NC(=O)[C@H](CC(C)C)NC(=O)[C@](C)(Cc1ccccc1)NC(=O)[C@H](CCCCN)NC(=O)[C@H](CO)NC(=O)[C@@H](NC(=O)[C@H](CC(=O)O)NC(=O)[C@H](CO)NC(=O)[C@@H](NC(=O)[C@](C)(Cc1ccccc1)NC(=O)[C@H](CO)NC(=O)CNC(=O)[C@H](Cc1c[nH]cn1)NC(=O)C(C)(C)NC(=O)[C@@H](N)Cc1c[nH]cn1)[C@@H](C)O)C(C)C)C(C)C)C(=O)N[C@@H](C)C(=O)N[C@@H](CC(N)=O)C(=O)N[C@H](C(=O)NCC(=O)NCC(N)=O)[C@@H](C)O` [Peptide 350] (H-H[Aib]HGS[αMeF]TSDVSK[αMeF]LDSQAAQDFVK([AEEA-AEEA-γGlu-C18 diacid])WIANTGG-NH2; N-terminus assumed), in assay [1], the “% Relative Potency Ratio” value amounted to 8.6 and a half-maximal response (EC50) required 88.6 pM. The compound further came in with an EC50 in assay [2] of 384 pM.
As to `CC[C@H](C)[C@H](NC(=O)[C@H](Cc1c[nH]c2ccccc12)NC(=O)[C@H](CCCCNC(=O)CC[C@H](NC(=O)CCCCCCCCCCCCCCCCC(=O)O)C(=O)O)NC(=O)[C@@H](NC(=O)[C@H](Cc1ccccc1)NC(=O)[C@H](CC(=O)O)NC(=O)[C@H](CCC(N)=O)NC(=O)[C@H](C)NC(=O)[C@H](C)NC(=O)[C@H](CCC(N)=O)NC(=O)[C@H](CO)NC(=O)[C@H](CC(=O)O)NC(=O)[C@H](CC(C)C)NC(=O)[C@](C)(Cc1ccccc1)NC(=O)[C@H](CCCCN)NC(=O)[C@H](CO)NC(=O)[C@@H](NC(=O)[C@H](CC(=O)O)NC(=O)[C@H](CO)NC(=O)[C@@H](NC(=O)[C@](C)(Cc1ccccc1)NC(=O)[C@H](CO)NC(=O)CNC(=O)[C@H](Cc1c[nH]cn1)NC(=O)C(C)(C)NC(=O)[C@@H](N)Cc1c[nH]cn1)[C@@H](C)O)C(C)C)C(C)C)C(=O)N[C@@H](C)C(=O)N[C@@H](CC(N)=O)C(=O)N[C@H](C(N)=O)[C@@H](C)O` [Peptide 351] (H-H[Aib]HGS[αMeF]TSDVSK[αMeF]LDSQAAQDFVK([γGlu-C18 diacid])WIANT-NH2), in assay [1], the “% Relative Potency Ratio” value turned out to be 0.7 and the concentration giving a half-maximal response (EC50) amounted to 605 pM. The same compound showed an EC50 in assay [2] of 216 pM.
The like results for `CC[C@H](C)[C@H](NC(=O)[C@H](Cc1c[nH]c2ccccc12)NC(=O)[C@H](CCCCNC(=O)CCOCCOCCNC(=O)CCOCCOCCNC(=O)CC[C@H](NC(=O)CC[C@H](NC(=O)CCCCCCCCCCCCCCCCC(=O)O)C(=O)O)C(=O)O)NC(=O)[C@@H](NC(=O)[C@H](Cc1ccccc1)NC(=O)[C@H](CC(=O)O)NC(=O)[C@H](CCC(N)=O)NC(=O)[C@H](C)NC(=O)[C@H](C)NC(=O)[C@H](CCC(N)=O)NC(=O)[C@H](CO)NC(=O)[C@H](CC(=O)O)NC(=O)[C@H](CC(C)C)NC(=O)[C@](C)(Cc1ccccc1)NC(=O)[C@H](CCCCN)NC(=O)[C@H](CO)NC(=O)[C@@H](NC(=O)[C@H](CC(=O)O)NC(=O)[C@H](CO)NC(=O)[C@@H](NC(=O)[C@](C)(Cc1ccccc1)NC(=O)[C@H](CO)NC(=O)CNC(=O)[C@H](Cc1c[nH]cn1)NC(=O)C(C)(C)NC(=O)[C@@H](N)Cc1c[nH]cn1)[C@@H](C)O)C(C)C)C(C)C)C(=O)N[C@@H](C)C(=O)N[C@@H](CC(N)=O)C(=O)N[C@H](C(N)=O)[C@@H](C)O` [Peptide 352] (H-H[Aib]HGS[αMeF]TSDVSK[αMeF]LDSQAAQDFVK([PEG2-PEG2-γGlu-γGlu-C18 diacid])WIANT-NH2; N-terminus assumed) were, in that order, 1.4, 193 pM and 139 pM.
The like results for `CC[C@H](C)[C@H](NC(=O)[C@H](Cc1c[nH]c2ccccc12)NC(=O)[C@H](CCCCNC(=O)CC[C@H](NC(=O)CC[C@H](NC(=O)CCOCCOCCNC(=O)CC[C@H](NC(=O)CC[C@H](NC(=O)CCCCCCCCCCCCCCCCC(=O)O)C(=O)O)C(=O)O)C(=O)O)C(=O)O)NC(=O)[C@@H](NC(=O)[C@H](Cc1ccccc1)NC(=O)[C@H](CC(=O)O)NC(=O)[C@H](CCC(N)=O)NC(=O)[C@H](C)NC(=O)[C@H](C)NC(=O)[C@H](CCC(N)=O)NC(=O)[C@H](CO)NC(=O)[C@H](CC(=O)O)NC(=O)[C@H](CC(C)C)NC(=O)[C@](C)(Cc1ccccc1)NC(=O)[C@H](CCCCN)NC(=O)[C@H](CO)NC(=O)[C@@H](NC(=O)[C@H](CC(=O)O)NC(=O)[C@H](CO)NC(=O)[C@@H](NC(=O)[C@](C)(Cc1ccccc1)NC(=O)[C@H](CO)NC(=O)CNC(=O)[C@H](Cc1c[nH]cn1)NC(=O)C(C)(C)NC(=O)[C@@H](N)Cc1c[nH]cn1)[C@@H](C)O)C(C)C)C(C)C)C(=O)N[C@@H](C)C(=O)N[C@@H](CC(N)=O)C(=O)N[C@H](C(N)=O)[C@@H](C)O` [Peptide 353] (H-H[Aib]HGS[αMeF]TSDVSK[αMeF]LDSQAAQDFVK([γGlu-γGlu-PEG2-γGlu-γGlu-C18 diacid])WIANT-NH2; N-terminus assumed) were, in that order, 1.0, 311 pM and 163 pM.
Consider `CC[C@H](C)[C@H](NC(=O)[C@H](Cc1c[nH]c2ccccc12)NC(=O)[C@H](CCCCNC(=O)CC[C@H](NC(=O)CCCCCCCCCCCCCCCCCCC(=O)O)C(=O)O)NC(=O)[C@@H](NC(=O)[C@H](Cc1ccccc1)NC(=O)[C@H](CC(=O)O)NC(=O)[C@H](CCC(N)=O)NC(=O)[C@H](C)NC(=O)[C@H](C)NC(=O)[C@H](CCC(N)=O)NC(=O)[C@H](CO)NC(=O)[C@H](CC(=O)O)NC(=O)[C@H](CC(C)C)NC(=O)[C@](C)(Cc1ccccc1)NC(=O)[C@H](CCCCN)NC(=O)[C@H](CO)NC(=O)[C@@H](NC(=O)[C@H](CC(=O)O)NC(=O)[C@H](CO)NC(=O)[C@@H](NC(=O)[C@](C)(Cc1ccccc1)NC(=O)[C@H](CO)NC(=O)CNC(=O)[C@H](Cc1c[nH]cn1)NC(=O)C(C)(C)NC(=O)[C@@H](N)Cc1c[nH]cn1)[C@@H](C)O)C(C)C)C(C)C)C(=O)N[C@@H](C)C(=O)N[C@@H](CC(N)=O)C(=O)N[C@H](C(N)=O)[C@@H](C)O` [Peptide 354], for which, in assay [1], the “% Relative Potency Ratio” value turned out to be 1.6 and the half-maximal effective concentration (EC50) came to 1110 pM. Also, the concentration for a half-maximal effect (EC50) in assay [2] was 902 pM.
On to `CC[C@H](C)[C@H](NC(=O)[C@H](Cc1c[nH]c2ccccc12)NC(=O)[C@H](CCCCNC(=O)CCOCCOCCNC(=O)CCOCCOCCNC(=O)CC[C@H](NC(=O)CC[C@H](NC(=O)CCCCCCCCCCCCCCCCCCC(=O)O)C(=O)O)C(=O)O)NC(=O)[C@@H](NC(=O)[C@H](Cc1ccccc1)NC(=O)[C@H](CC(=O)O)NC(=O)[C@H](CCC(N)=O)NC(=O)[C@H](C)NC(=O)[C@H](C)NC(=O)[C@H](CCC(N)=O)NC(=O)[C@H](CO)NC(=O)[C@H](CC(=O)O)NC(=O)[C@H](CC(C)C)NC(=O)[C@](C)(Cc1ccccc1)NC(=O)[C@H](CCCCN)NC(=O)[C@H](CO)NC(=O)[C@@H](NC(=O)[C@H](CC(=O)O)NC(=O)[C@H](CO)NC(=O)[C@@H](NC(=O)[C@](C)(Cc1ccccc1)NC(=O)[C@H](CO)NC(=O)CNC(=O)[C@H](Cc1c[nH]cn1)NC(=O)C(C)(C)NC(=O)[C@@H](N)Cc1c[nH]cn1)[C@@H](C)O)C(C)C)C(C)C)C(=O)N[C@@H](C)C(=O)N[C@@H](CC(N)=O)C(=O)N[C@H](C(N)=O)[C@@H](C)O` [Peptide 355] (H-H[Aib]HGS[αMeF]TSDVSK[αMeF]LDSQAAQDFVK([PEG2-PEG2-γGlu-γGlu-C20 diacid])WIANT-NH2; N-terminus assumed), for which, in assay [1], the “% Relative Potency Ratio” value is on record as 2.2 and the half-maximal effective concentration (EC50) was determined as 424 pM. In assay [2], this compound registered an EC50 of 478 pM.
With `CC[C@H](C)[C@H](NC(=O)[C@H](Cc1c[nH]c2ccccc12)NC(=O)[C@H](CCCCNC(=O)COCCOCCNC(=O)COCCOCCNC(=O)CC[C@H](NC(=O)CCCCCCCCCCCCCCCCCCC(=O)O)C(=O)O)NC(=O)[C@@H](NC(=O)[C@H](Cc1ccccc1)NC(=O)[C@H](CC(=O)O)NC(=O)[C@H](CCC(N)=O)NC(=O)[C@H](C)NC(=O)[C@H](C)NC(=O)[C@H](CCC(N)=O)NC(=O)[C@H](CO)NC(=O)[C@H](CC(=O)O)NC(=O)[C@H](CC(C)C)NC(=O)[C@](C)(Cc1ccccc1)NC(=O)[C@H](CCCCN)NC(=O)[C@H](CO)NC(=O)[C@@H](NC(=O)[C@H](CC(=O)O)NC(=O)[C@H](CO)NC(=O)[C@@H](NC(=O)[C@](C)(Cc1ccccc1)NC(=O)[C@H](CO)NC(=O)CNC(=O)[C@H](Cc1c[nH]cn1)NC(=O)C(C)(C)NC(=O)[C@@H](N)Cc1c[nH]cn1)[C@@H](C)O)C(C)C)C(C)C)C(=O)N[C@@H](C)C(=O)N[C@@H](CC(N)=O)C(=O)N[C@H](C(N)=O)[C@@H](C)O` [Peptide 356] (H-H[Aib]HGS[αMeF]TSDVSK[αMeF]LDSQAAQDFVK([AEEA-AEEA-γGlu-C20 diacid])WIANT-NH2; N-terminus assumed), the “% Relative Potency Ratio” value in assay [1] is 2.1. Also, the results for the EC50 in assay [1] and in assay [2] were 304 pM and 316 pM, respectively.
